Where “and” joins values, the source holds several entries; their conditions need not be identical. Equal entries are not always repeated. Entries after “also recorded” stand apart in the source; their conditions may differ.
Legend:
A. fumigatus infection = assay: Small animal PET/CT imaging in rat IPA model; conditions: IPA Lewis rats (A. fumigatus lung infection), r.o. injection ~6 MBq, PET/CT 45 min p.i.
Description: (§1) PET and CT images were acquired with an Albira PET/SPECT/CT small animal imaging system (Bruker Biospin Corporation, Woodbridge, CT, USA). A. fumigatus infection in rats was established as described by Petrik, et al.. A group of 3 female Lewis rats (2–3 months old), healthy or lung infected, were injected retro-orbitally (r.o.) with [^68Ga] […] Animals were anesthetized with isoflurane (FORANE, Abbott Laboratories, Abbott Park, IL, USA) (2 % flow rate) and positioned prone head first in the Albira system. PET/CT imaging was started 45 min p.i. with a 10-min PET (FOV 148 mm axial) and a subsequent triple CT scanning (FOV 3 × 65 mm axial, 45 kVp, 400 μA, at 400 projections). For reconstruction, Albira software (Bruker Biosoin Corporation, Woodbridge, CZ, USA) was used involving filtered backprojection and MLEM algorithms. PMOD software (PMOD Technologies Ltd., Zurich, Switzerland) was used to analyze and view the reconstructed images.

[1] = Biodistribution in healthy BALB/c mice; conditions: 90 min p.i.
Description: At 90 min post injetion (p.i.), mice were sacrified by cervical dislocation. Organs and tissues (blood, spleen, pancrease, stomach, intestine, kidneys, liver, heart, lung, muscle, femur) were collected and weighed. Radioactivities accumulated by tissues were measured in the gamma counter. The obtained values were expressed as the percentage of injected dose per gram tissue (%ID/g). Urine sample from each animal was injected to RP-HPLC for analysis of urinary metabolic profile of [^68Ga]siderophore.

[2] = Small animal PET/CT imaging in non-infected Lewis rats; conditions: for excretion in PET/CT images: healthy Lewis rats, 45 min p.i.; for Lung uptake (non-infected): non-infected Lewis rats, r.o. injection ~6 MBq, PET/CT 45 min p.i.
Description: as §1

[3] = Stability in PBS pH 7.4 (RP-HPLC, %RCP); conditions: PBS pH 7.4, 37 °C, n = 3
Description: (§2) [^68Ga]siderophore (50 μl, 2 nmol) was incubated in 450 μl PBS or human serum at 37 °C. At each time point, aliquot of PBS was injected directly to RP-HPLC whereas serum aliquot was mixed with MeOH, vortexed, and centrifuged at 20,000 rcf for 2 min. Supernatant was diluted with H2O and subsequently analyzed by RP-HPLC. The stability was presented as %RCP of radiotracer (n = 3).

[4] = Stability in fresh human serum (RP-HPLC, %RCP); conditions: 37 °C, n = 3
Description: as §2

[5] = Protein binding in human serum (size exclusion spin columns); conditions: 37 °C, n = 3
Description: At selected time points, 25 μl of serum aliquots was applied on size exclusion spin columns MicroSpin™ G-50 (GE Healthcare, Vienna, Austria). Columns were centrifuged at 2000 rcf for 2 min to separate protein bound radiotracer (eluate) from non-protein bound radiotracer (column). Protein binding ability was determined by measuring activities of column and eluate in the gamma counter.

[6] = tested on: A. fumigatus wildtype (ATCC46645); assay: In vitro uptake assay in A. fumigatus; format: cell-based, Aspergillus fumigatus; conditions: iron-starvation condition, 45 min, normalized to [^68Ga]TAFC uptake from the same experiment, n = 3
Description: For in vitro uptake studies, A. fumigatus wildtype (ATCC46645) was used. Fungal strain was cultured at 37 °C in Aspergillus minimal medium (AMM) containing 1 % (m/v) glucose as carbon source, 20 mM glutamine as nitrogen source, salts, and trace elements. Iron-sufficient media were prepared by adding FeSO4 to a final concentration of 30 μM. For iron-deficient conditions, supplementation of iron was omitted. Iron starvation was verified by the detection of extracellular siderophore production which is suppressed by iron supplementation.
Uptake assays were performed in either iron-deficient or iron-sufficient A. fumigatus wildtype cultures. In a 96-well MultiScreen Filter Plates HTS (1 μm glass fiber filter, Merck Millipore, Darmstadt, Germany), 180 μl of A. fumigatus suspended in iron-replete or iron-depleted medium was added. [^68Ga]siderophores (approx. 1 × 10^5 cpm, 80 nM) were incubated with either PBS pH 7.4 (total series) or blocking solution (10 μM [Fe]TAFC) (non-specific series) at RT for 45 min in quadriplicates. The incubation was interrupted by suction of the medium and the plate was washed twice with ice-cold TRIS-buffered saline (10 mM, pH 7.3). The filters were isolated and the remaining activities were measured in the gamma counter. The uptake was calculated as % uptake of total activity added; each assay was repeated three times. To normalize uptake variations between different fungal cultures, the uptake of each [^68Ga]siderophore was expressed as the ratio to [^68Ga]TAFC uptake from the same experiment. The mean values of three different assays were used to quantitatively compare the difference in uptake between the compounds.

[7] = tested on: A. fumigatus mutant strain ΔsidA/ΔftrA; assay: Siderophore utilization growth assay; format: cell-based, Aspergillus fumigatus; conditions: 37 °C, 48 h, 0.1-100 μM [Fe]siderophore in AMM
Description: For siderophore utilization growth assays, A. fumigatus mutant strain ΔsidA/ΔftrA [7], which can grow only in the presence of externally added iron-siderophores or at high iron concentrations, was used. The fungal strain was inoculated in iron-deficient culture as described above.
To investigate the ability or inability of A. fumigatus to take up and utilize [Fe]siderophores as iron source, a growth assay with the A. fumigatus mutant strain ΔsidA/ΔftrA was employed. In a 24-well plate, aliquots of 10^3 conidia of mutant strain were point inoculated on 1 ml of AMM containing 0.1, 1, 10, 50, or 100 μM of [Fe]siderophore and incubated at 37 °C for 48 h. For the control, fungi were grown in iron-limited AMM without adding [Fe]siderophore.

[8] = healthy BALB/c mice, i.v., n = 3

SMILES: CC1=CC(=O)N(O)CCCC(NC(=O)CCC(=O)O)C(=O)OCCC(C)=CC(=O)N(O)CCCC(NC(=O)CCC(=O)O)C(=O)OCCC(C)=CC(=O)N(O)CCCC(NC(=O)CCC(=O)O)C(=O)OCC1 (centres unmarked) (68Ga complex, metal not drawn) [FSC(suc)3, trisuccinyl(FSC)]
- Lung uptake (infected) (A. fumigatus infection; listed as [^68Ga]FSC(suc)3): 0.31 ± 0.04 %ID/g and 0.3 %ID/g
- retention in the intestine and kidneys in comparison with [^68Ga]TAFC ([1]; BALB/c mice): Slightly lower retention
- species detected in urine (RP-HPLC urinary metabolic profile) ([1]; BALB/c mice): only intact
- excretion ([1]; healthy BALB/c mice, i.v.): rapid renal excretion
- blood levels [1, 8]: < 0.1 %ID/g
- excretion in PET/CT images [2]: excreted rapidly via the urinary system
- Lung uptake (non-infected) [2]: 0.21 ± 0.03 %ID/g
- Stability in PBS (%) ([3]; 30 min): 99.85 ± 0.07%
- Stability in PBS (%) ([3]; 60 min): 99.77 ± 0.12%
- Stability in PBS (%) ([3]; 120 min): 99.72 ± 0.09%
- Stability in serum (%) ([4]; 30 min): 99.59 ± 0.08%
- Stability in serum (%) ([4]; 60 min): 99.43 ± 0.17%
- Stability in serum (%) ([4]; 120 min): 99.36 ± 0.08%
- Protein binding (%) ([5]; incubation time 30 min): 2.53 ± 0.63%
- Protein binding (%) ([5]; incubation time 60 min): 2.96 ± 0.21%
- Protein binding (%) ([5]; incubation time 120 min): 2.60 ± 0.62%
- uptake ratio to [^68Ga]TAFC [6]: 0.01
- uptake ratio to [^68Ga]TAFC ([6]; listed as [^68Ga]FSC(suc)3): less than 0.05

SMILES: CC(=O)NC1CCCN(O)C(=O)C=C(C)CCOC(=O)C(NC(C)=O)CCCN(O)C(=O)C=C(C)CCOC(=O)C(NC(C)=O)CCCN(O)C(=O)C=C(C)CCOC1=O (centres unmarked) (68Ga complex, metal not drawn) [TAFC, triacetylfusarinine C]
- Lung uptake (infected) (A. fumigatus infection): 0.69 ± 0.11 %ID/g
- species detected in urine (RP-HPLC urinary metabolic profile) ([1]; BALB/c mice): only intact
- excretion ([1]; healthy BALB/c mice, i.v.): rapid renal excretion
- blood levels [1, 8]: < 0.1 %ID/g
- excretion in PET/CT images [2]: excreted rapidly via the urinary system
- Lung uptake (non-infected) [2]: 0.20 ± 0.03 %ID/g
- Stability in PBS (%) ([3]; 30 min): 99.89 ± 0.02%
- Stability in PBS (%) ([3]; 60 min): 99.83 ± 0.13%
- Stability in PBS (%) ([3]; 120 min): 99.73 ± 0.03%
- Stability in serum (%) ([4]; 30 min): 99.48 ± 0.29%
- Stability in serum (%) ([4]; 60 min): 99.46 ± 0.09%
- Stability in serum (%) ([4]; 120 min): 99.41 ± 0.19%
- Protein binding (%) ([5]; incubation time 30 min): 2.54 ± 1.01%
- Protein binding (%) ([5]; incubation time 60 min): 3.55 ± 0.68%
- Protein binding (%) ([5]; incubation time 120 min): 2.96 ± 0.33%
- uptake ratio to [^68Ga]TAFC [6]: 1

SMILES: CCC(=O)NC1CCCN(O)C(=O)C=C(C)CCOC(=O)C(NC(=O)CC)CCCN(O)C(=O)C=C(C)CCOC(=O)C(NC(=O)CC)CCCN(O)C(=O)C=C(C)CCOC1=O (centres unmarked) (68Ga complex, metal not drawn) [TPFC, tripropanoyl(FSC)]
- Lung uptake (infected) (A. fumigatus infection): 0.63 ± 0.08 %ID/g
- species detected in urine (RP-HPLC urinary metabolic profile) ([1]; BALB/c mice): only intact
- excretion ([1]; healthy BALB/c mice, i.v.): rapid renal excretion
- blood levels [1, 8]: < 0.1 %ID/g
- uptake in intestine [1, 8]: lower than 3 %ID/g
- excretion in PET/CT images ([2]; listed as [^68Ga]TPFC): excreted rapidly via the urinary system; also recorded: certain hepatobiliary excretion
- Lung uptake (non-infected) [2]: 0.20 ± 0.02 %ID/g
- Stability in PBS (%) ([3]; 30 min): 99.90 ± 0.02%
- Stability in PBS (%) ([3]; 60 min): 99.86 ± 0.04%
- Stability in PBS (%) ([3]; 120 min): 99.79 ± 0.11%
- Stability in serum (%) ([4]; 30 min): 99.67 ± 0.19%
- Stability in serum (%) ([4]; 60 min): 99.56 ± 0.23%
- Stability in serum (%) ([4]; 120 min): 99.54 ± 0.25%
- Protein binding (%) ([5]; incubation time 30 min): 2.31 ± 0.57%
- Protein binding (%) ([5]; incubation time 60 min): 3.39 ± 0.32%
- Protein binding (%) ([5]; incubation time 120 min): 2.65 ± 0.66%
- uptake ratio to [^68Ga]TAFC [6]: 1.40
- uptake ratio to [^68Ga]TAFC ([6]; listed as [^68Ga]TPFC): ~1.4

SMILES: CCCC(=O)NC1CCCN(O)C(=O)C=C(C)CCOC(=O)C(NC(C)=O)CCCN(O)C(=O)C=C(C)CCOC(=O)C(NC(C)=O)CCCN(O)C(=O)C=C(C)CCOC1=O (centres unmarked) (68Ga complex, metal not drawn) [DABuFC, diacetylbutanoyl(FSC)]
- Lung uptake (infected) (A. fumigatus infection): 0.79 ± 0.15 %ID/g
- retention in the blood, spleen, and pancreas in comparison with [^68Ga]TAFC ([1]; BALB/c mice): Slightly lower retention
- species detected in urine (RP-HPLC urinary metabolic profile) ([1]; BALB/c mice): only intact
- excretion ([1]; healthy BALB/c mice, i.v.): rapid renal excretion
- blood levels [1, 8]: < 0.1 %ID/g
- excretion in PET/CT images ([2]; listed as [^68Ga]DABuFC): excreted rapidly via the urinary system; also recorded: certain hepatobiliary excretion
- Lung uptake (non-infected) [2]: 0.23 ± 0.03 %ID/g
- Stability in PBS (%) ([3]; 30 min): 99.87 ± 0.07%
- Stability in PBS (%) ([3]; 60 min): 99.85 ± 0.08%
- Stability in PBS (%) ([3]; 120 min): 99.79 ± 0.14%
- Stability in serum (%) ([4]; 30 min): 99.58 ± 0.04%
- Stability in serum (%) ([4]; 60 min): 99.59 ± 0.20%
- Stability in serum (%) ([4]; 120 min): 99.60 ± 0.14%
- Protein binding (%) ([5]; incubation time 30 min): 2.63 ± 1.03%
- Protein binding (%) ([5]; incubation time 60 min): 2.92 ± 1.11%
- Protein binding (%) ([5]; incubation time 120 min): 3.61 ± 1.19%
- uptake ratio to [^68Ga]TAFC [6]: 0.87
- uptake ratio to [^68Ga]TAFC ([6]; listed as [^68Ga]DABuFC): around 1

SMILES: CCC(=O)NC1CCCN([O-])C(=O)C=C(C)CCOC(=O)C(NC(=O)CC)CCCN([O-])C(=O)C=C(C)CCOC(=O)C(NC(=O)CC)CCCN([O-])C(=O)C=C(C)CCOC1=O.[Fe+3] (centres unmarked) [[Fe]TPFC, tripropanoyl[Fe]FSC]
- degree of utilization / growth support by [Fe]siderophore [7]: Medium degree
